Measured values taken from patent US20200179312A1, “ANALOGUES OF CYSTEAMINE AS THERAPEUTIC AGENTS FOR CYSTIC FIBROSIS” (I.E.R.F.C. EUROPEAN INSTITUTE FOR CYSTIC FIBROSIS RESEARCH, priority 2018, published 2020).

Legend:
CFTR [1] = target: T1, CFTR (Mus musculus, UniProt P26361, DEL508-508); assay: Immunoblot of CFTR protein levels in tissues of CftrF508del mice; format: in vivo; conditions: i.p. 5 d, then 20 d of wash out, lung and small intestinal tissue
T1 construct: the Ussing chamber experiments (on small intestinal tissues); from tissue; host or cells: small intestine (Ussing chamber); lung and small intestine homogenates (immunoblot) of CftrF508del mice
From the text: (§1) CF mice homozygous for the delF508-CFTR mutation (abbreviated CftrF508del) in the 129/FVB outbred background (CftrtmlEUR, F508del, FVB/129) were obtained from Erasmus Medical Center Rotterdam, The Netherlands (CF coordinated action program EU FP6 LSHM-CT-2005-018932). These studies and procedures were approved by the local Ethics Committee for Animal Welfare (IACUC No 713). Young adult CF mice and their wild-type (wt) littermates were housed in static isolator cages at the animal care specific pathogen-free facility of Charles River (Calco, Italy). CftrF508del mice were treated with daily intraperitoneal injections of cysteamine (100 μl of 0.05 M in PBS) (Sigma Aldrich, M9768) or IE1 (100 μl of 0.075-0.05-0.025-0.0125 M, in PBS) for 5 d or with cysteamine (5 d) or IE1 different concentrations followed by 10 d or 20 d of PBS alone (n=5 mice per group) (19,20).
(§2) The proteins of cell lines lysates or lung or small intestine homogenates, obtained from treated and untreated cells or mice, were quantified by a Bio-Rad protein assay to ensure equal protein loading before immunoblot analysis. Fifty micrograms of proteins were loaded in each lane. […]

CFTR [2] = target: CFTR (Homo sapiens, UniProt P13569, DEL508-508); assay: Immunoblot detection of CFTR in CFBE cells; format: cell-based; set-up: expressed in transfected cells; host or cells: CFBE41o- cells
Method: Cell lines experiments. CFBE41l- and 16HBE14o-cells were cultured in Minimum Essential Medium (MEM) with Earle's salt, 200 mM L-Glutamine, 10% FBS and penicillin/streptomycin. CFBE41o-cells were transfected with AF508-CFTR at 37° C. and incubated for 18 h with cysteamine (250 μM) or different concentration of IE1.
(§3) The proteins of cell lines lysates or lung or small intestine homogenates, obtained from treated and untreated cells or mice, were quantified by a Bio-Rad protein assay to ensure equal protein loading before immunoblot analysis. Fifty micrograms of proteins were loaded in each lane. Antibodies against SQSTM1, (Sigma Aldrich,P0067) 1:1000, BECN1 (Abcam, ab58878), 1:1000, CFTR clone CF3 (Abcam, ab2784) 1:1000 or anti-CFTR antibody 660 1:1000, Phospho-p44/42 MAPK (Erk1/2) (Thr202/Tyr204) (Cell Signaling Technology, #91101) 1:1000, TG2 (CUB7402, NEOMARKER) 1:1000 were used. Normalization was performed by probing the membrane with anti-β-actin (Cell Signaling, #4970) 1:1000 or anti-α-tubulin (Cell Signaling Technology, 2148) 1:1000.

TNF alpha, MIP-2 = assay: ELISA of inflammatory cytokines in tissues of CftrF508del mice; format: in vivo; conditions: intestinal and lung tissues
From the text: as §1
ELISA. ELISA was performed on tissue samples using standard ELISA kits (R&D Systems) for TNF-α, Mip2a. According to the manufacturer's instructions, samples were read in triplicate at 450 nm in a microplate Reader (Bio-Rad, Milan, Italy) using Microplate Manager 5.2.1 software.
Values were normalized to protein concentration evaluated by Bradford analysis.

[3] = system: BECN1, (phospho)p42/44 MAPK; assay: Immunoblot of whole homogenates from intestinal and lung tissues of CftrF508del mice; format: in vivo
From the text: as §1, §2

[4] = system: BECN1, SQSTM1/p62, (phospho)p42/44 MAPK; assay: Immunoblot of autophagy and inflammation markers in CFBE cells; format: cell-based; conditions: 0.1 μM
Method: Cell lines experiments. CFBE41l- and 16HBE14o-cells were cultured in Minimum Essential Medium (MEM) with Earle's salt, 200 mM L-Glutamine, 10% FBS and penicillin/streptomycin. […]
as §3

F508delCFTR = F508delCFTR (Homo sapiens, UniProt P13569, DEL508-508); assay: SPQ assay in CFBE41o- cells transfected with F508delCFTR; format: cell-based; set-up: expressed in transfected cells; host or cells: CFBE41o- cells
Method: The compounds of formula I have marked effects on CFTR function. A representative number of compounds of formula I (Compounds IE1-IE4; Table I) were tested in comparison to cysteamine and amifostine through SPQ assay in F508delCFTR homozygous bronchial epithelial cell lines (CFBE41o-) transfected with F508delCFTR (FIG. 1) and in ex vivo in nasal cells collected by nasal brushing from CF patients (FIGS. 2A and B). Cell lines experiments. CFBE41l- and 16HBE14o-cells were cultured in Minimum Essential Medium (MEM) with Earle's salt, 200 mM L-Glutamine, 10% FBS and penicillin/streptomycin. CFBE41o-cells were transfected with AF508-CFTR at 37° C. and incubated for 18 h with cysteamine (250 μM) or different concentration of IE1.

Sequence of CFTR (Homo sapiens, UniProt P13569, DEL508-508) (P13569 with tags, fused parts or gaps DEL508-508): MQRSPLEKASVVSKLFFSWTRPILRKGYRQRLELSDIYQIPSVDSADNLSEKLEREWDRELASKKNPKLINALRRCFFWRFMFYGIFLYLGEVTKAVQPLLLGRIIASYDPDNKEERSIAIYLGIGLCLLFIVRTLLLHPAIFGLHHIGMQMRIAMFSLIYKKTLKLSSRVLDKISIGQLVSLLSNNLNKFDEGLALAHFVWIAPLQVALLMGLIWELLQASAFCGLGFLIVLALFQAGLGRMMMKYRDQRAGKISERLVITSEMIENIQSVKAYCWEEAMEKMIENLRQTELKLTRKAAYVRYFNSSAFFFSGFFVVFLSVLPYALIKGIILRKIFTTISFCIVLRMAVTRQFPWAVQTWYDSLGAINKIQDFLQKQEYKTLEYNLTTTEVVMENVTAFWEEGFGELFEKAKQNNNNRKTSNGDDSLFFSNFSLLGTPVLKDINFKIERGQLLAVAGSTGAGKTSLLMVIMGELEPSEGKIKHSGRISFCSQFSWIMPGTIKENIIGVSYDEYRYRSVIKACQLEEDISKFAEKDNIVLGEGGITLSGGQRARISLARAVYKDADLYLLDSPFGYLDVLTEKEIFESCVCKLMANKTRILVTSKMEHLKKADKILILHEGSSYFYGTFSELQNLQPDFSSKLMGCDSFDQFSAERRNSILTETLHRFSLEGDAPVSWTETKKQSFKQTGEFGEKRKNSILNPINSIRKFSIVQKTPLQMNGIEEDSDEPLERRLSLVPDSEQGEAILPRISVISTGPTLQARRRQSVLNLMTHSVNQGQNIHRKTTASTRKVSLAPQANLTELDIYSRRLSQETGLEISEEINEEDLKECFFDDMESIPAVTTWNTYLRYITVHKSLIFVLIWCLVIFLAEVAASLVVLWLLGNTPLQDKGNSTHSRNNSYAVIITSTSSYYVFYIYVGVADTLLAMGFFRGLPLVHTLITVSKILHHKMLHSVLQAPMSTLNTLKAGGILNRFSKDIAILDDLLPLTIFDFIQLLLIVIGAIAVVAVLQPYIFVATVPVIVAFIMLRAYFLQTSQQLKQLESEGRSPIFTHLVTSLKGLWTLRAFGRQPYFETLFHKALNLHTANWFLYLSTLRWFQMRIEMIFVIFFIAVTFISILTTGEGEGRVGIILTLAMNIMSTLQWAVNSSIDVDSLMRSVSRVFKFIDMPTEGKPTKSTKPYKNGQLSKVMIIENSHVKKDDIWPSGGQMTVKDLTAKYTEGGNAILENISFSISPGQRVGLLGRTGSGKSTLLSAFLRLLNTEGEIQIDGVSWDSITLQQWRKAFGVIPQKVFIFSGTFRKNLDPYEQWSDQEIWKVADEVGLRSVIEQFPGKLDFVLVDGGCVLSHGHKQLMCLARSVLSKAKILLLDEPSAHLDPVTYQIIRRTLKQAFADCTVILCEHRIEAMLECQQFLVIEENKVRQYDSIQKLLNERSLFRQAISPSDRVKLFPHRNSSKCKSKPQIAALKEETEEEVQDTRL
Sequence of F508delCFTR (P13569 with tags, fused parts or gaps DEL508-508): as above
T1 sequence (P26361 with tags, fused parts or gaps DEL508-508): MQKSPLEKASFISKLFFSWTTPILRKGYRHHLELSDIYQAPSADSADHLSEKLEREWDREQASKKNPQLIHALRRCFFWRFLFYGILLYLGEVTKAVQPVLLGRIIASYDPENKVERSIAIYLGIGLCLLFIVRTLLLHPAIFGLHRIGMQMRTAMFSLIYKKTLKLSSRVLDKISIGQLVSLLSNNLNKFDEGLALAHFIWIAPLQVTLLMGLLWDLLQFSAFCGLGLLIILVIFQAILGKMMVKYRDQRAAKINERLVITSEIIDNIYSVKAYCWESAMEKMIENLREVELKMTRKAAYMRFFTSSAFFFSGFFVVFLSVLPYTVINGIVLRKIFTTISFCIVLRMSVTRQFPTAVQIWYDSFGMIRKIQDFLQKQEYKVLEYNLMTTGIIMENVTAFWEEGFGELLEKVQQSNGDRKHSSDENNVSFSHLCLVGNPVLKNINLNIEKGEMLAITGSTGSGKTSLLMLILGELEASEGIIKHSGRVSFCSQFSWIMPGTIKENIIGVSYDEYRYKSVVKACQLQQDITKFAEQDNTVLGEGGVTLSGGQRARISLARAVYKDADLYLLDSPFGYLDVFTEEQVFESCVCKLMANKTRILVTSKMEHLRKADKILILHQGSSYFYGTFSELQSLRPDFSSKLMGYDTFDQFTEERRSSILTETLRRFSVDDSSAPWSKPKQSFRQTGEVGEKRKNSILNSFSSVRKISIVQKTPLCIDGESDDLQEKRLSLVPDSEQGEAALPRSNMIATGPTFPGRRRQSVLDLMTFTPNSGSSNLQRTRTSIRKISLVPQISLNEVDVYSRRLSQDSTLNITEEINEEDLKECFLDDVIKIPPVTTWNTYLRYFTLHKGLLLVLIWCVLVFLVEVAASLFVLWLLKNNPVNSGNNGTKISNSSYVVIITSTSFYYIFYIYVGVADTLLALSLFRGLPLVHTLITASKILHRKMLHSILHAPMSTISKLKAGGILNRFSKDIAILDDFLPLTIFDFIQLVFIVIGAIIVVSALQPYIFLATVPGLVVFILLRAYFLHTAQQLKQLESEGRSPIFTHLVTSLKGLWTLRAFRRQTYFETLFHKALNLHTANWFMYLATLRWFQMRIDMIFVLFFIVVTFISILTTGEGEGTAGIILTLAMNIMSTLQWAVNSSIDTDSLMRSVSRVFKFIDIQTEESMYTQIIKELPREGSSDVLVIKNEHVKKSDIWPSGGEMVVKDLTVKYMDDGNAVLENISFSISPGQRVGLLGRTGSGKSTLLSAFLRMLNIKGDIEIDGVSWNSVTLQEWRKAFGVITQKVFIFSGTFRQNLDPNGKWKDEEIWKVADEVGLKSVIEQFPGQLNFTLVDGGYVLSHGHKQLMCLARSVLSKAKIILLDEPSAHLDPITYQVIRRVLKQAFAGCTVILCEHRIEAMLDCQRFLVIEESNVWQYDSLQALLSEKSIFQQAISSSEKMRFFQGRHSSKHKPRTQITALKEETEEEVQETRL

- PM-resident CFTR protein after washout (CFTR [2]; 0.1 μM, 24 h of washout): maintained
- PM-resident CFTR protein after washout (CFTR [2]; 48 h of washout): decreases
- PM-resident CFTR protein after washout with EGCG added (CFTR [2]; 48 h of washout, EGCG added): completely maintained
- Concentration lower than cysteamine for equal restoration of CFTR function (F508delCFTR; 0.1 μM vs 250 μM): more than 2500 fold
- % Function vs 16HBE (F508delCFTR; 0.1 μM, CFBE41o- transfected with F508delCFTR): 72%
- CFTR function after wash out with EGCG added (F508delCFTR; 48 h after wash out, epigallocatechin gallate added, CFBE cells): effect is preserved
- CFTR function after wash out (F508delCFTR; 48 h after wash out, CFBE cells): loses its efficacy
- CFTR function after wash out (F508delCFTR; up to 24 h after wash out, CFBE cells): able to maintain CFTR function
SMILES: NCCCS [IE1, 3-aminopropane-1-thiol]
- CFTR protein levels after wash out (immunoblot) (CFTR [1]): sustaining the protein well beyond 20 d of wash out
- PM-resident CFTR protein (CFTR [2]; 0.1 μM): a sizeable fraction of the channel resided at the PM
- MIP-2 (TNF alpha, MIP-2): decrease principal inflammatory cytokines
- TNF alpha (TNF alpha, MIP-2): decrease principal inflammatory cytokines
- BECN1 in whole homogenates [3]: able to restore BECN1
- Biomarkers (phospho)p42/44 MAPK in whole homogenates [3]: decrease biomarkers (phospho)p42/44 MAPK
- BECN1 level [4]: able to restore BECN1
- Inflammation biomarkers (phospho)p42/44 MAPK [4]: decrease
- p62 levels [4]: reduce p62 levels
- Effect on (phospho)p42/44 MAPK after 48 h in presence of EGCG ([4]; 48 h, EGCG): maintained
- Effect on BECN1 and p62 after 48 h with EGCG addition ([4]; 48 h, EGCG addition): preserved
- Effect on (phospho)p42/44 MAPK after 48 h ([4]; after 48 h): completely lost
- Effect on BECN1 and p62 after 48 h ([4]; after 48 h): disappears
